Assay results as given in patent publication US9527896B2, “Stabilized p53 peptides and uses thereof” (DANA-FARBER CANCER INSTITUTE, INC., priority 2007, dated 2016).
Where two headings read alike, the source gives them in different places. Bridge positions count the residues as written; N and C are the ends. Square brackets hold non-standard residues; d marks the D form. Peptide text beside a SMILES is read from it. R8 = C=CCCCCCC[C@@](C)(N)C(=O)O; S5 = C=CCCC[C@](C)(N)C(=O)O; βAla = NCCC(=O)O

Columns and labels:
circular dichroism = conditions: water; pH 7.0; 20 °C; 10-50 uM
HDM217-125 = biological target: T1, HDM217-125 (Homo sapiens, UniProt Q00987); experiment: Fluorescence polarization binding assay, FITC-peptides and HDM217-125; conditions: FITC-labeled derivatives
T1 construct: plasmid encoding HDM217-125 with an N-terminal hexahistidine tag; hexahistidine tag (N, cleaved yes); thrombin cleavage site (N, cleaved yes); made in house; host or cells: Escherichia coli BL21 (DE3)
Method: (§1) FIG. 10 Fluorescence polarization binding assay of stapled peptides. Fluoresceinated peptides (5 nM) were incubated with recombinant HDM217-125 (25 pM-10 μM) at room temperature. Binding activity was measured by fluorescence polarization, and Kd values were obtained by […].
as §1, with “A fluorescence” for “FIG. 10 Fluorescence”, “assay was used to assess binding” for “assay”, “peptides to HDM217-125.” for “stapled peptides.”, “KD” for “Kd”
Purified HDM217-125 was prepared as follows. […]
and a thrombin cleavage site were cultured in kanamycin- and chloramphenicol-containing Luria Broth and induced with 0.1 mM isopropyl β-D-thiogalactoside (IPTG). […] Purity of the protein was assessed by SDS-PAGE, FPLC and MALDI-TOF and determined to be >90%. […]
Fluoresceinated compounds (LT=5-25 nM) were incubated with HDM217-125 in binding assay buffer (140 mM NaCl, 50 mM, Tris pH 8.0) at room temperature. Binding activity was measured by fluorescence polarization on a Perkin-Elmer LS50B luminescence spectrophotometer using a cuvette containing a stirbar or a Spectramax M5 Microplate Reader (Molecular Devices). Kd values were determined by nonlinear regression analysis of dose response curves using Prism software 4.0 Graphpad. […]

[1] = Ex vivo protease stability in serum; type: in vitro ADME, mouse
Method: FIG. 5 To determine whether SAH-p53 peptides have increased proteolytic stability, the wild type p5314-29 peptide and SAH-p53-4 were exposed to serum ex vivo.
To assess the protease stability of the peptides, fluoresceinated peptides (2.5 μg) were incubated with fresh mouse serum (20 μL) at 37° C. for 0-24 hours. The level of intact fluoresceinated compound was determined by flash freezing the serum specimens in liquid nitrogen, lyophilization, extraction in 1:1 CH3CN:H2O containing 0.1% TFA, followed by HPLC-based quantitation using fluorescence detection at excitation/emission settings of 495/530 nm.

HDM2 = biological target: T2, HDM2 (Homo sapiens, UniProt Q00987); experiment: Kd (nM)
T2 construct: Co-Immunoprecipitation of FITC-SAH-p53 Peptides and Endogenous HDM2; endogenous in cells; host or cells: SJSA-1 osteosarcoma cells
Text: The patent's description of the figure: FIGS. 1A-1F Synthesis, Sequence, and Biochemical Analysis of SAH-p53 Peptides. FIG. 1A Non-natural amino acids were synthesized as described and cross-linked by ruthenium-catalyzed ring-closing olefin metathesis. […] Note: UAH-p53-8 is the “unstapled” form of SAH-p53-8.

RKO cells = experiment: Annexin V binding as an indicator of apoptosis, RKO cells; type: cell-based; conditions: 24 hours
Text: FIG. 9 Annexin V binding as an indicator of apoptosis.

SJSA-1 cells [2] = system: SJSA-1 cells
Text: After washing with PBS, the cells were fixed in 4% paraformaldehyde, washed with PBS, and treated with DAPI-containing (nuclear counterstain) Vectashield mounting medium (Vector), coverslipped and imaged by confocal microscopy (BioRad 1024 or Nikon E800).

SJSA-1 cells [3] = type: cell-based; conditions: 24 h
Method: SJSA-1 osteosarcoma cells (4×10^5 cells per well) were incubated in 96-well plates and treated with p53 peptides in serum-free media for 4 hours, followed by serum replacement and additional incubation for 20 hours. Cell viability was assayed by addition of CellTiter-Glo™ bioluminescence reagent (Promega) and reading luminescence in a Spectramax M5 microplate reader (Molecular Devices). The extent of apoptosis was measured through the detection of caspase-3 activity by exposing the cells to a caspase-3-specific substrate (Oncogene). Fluorescence as a result of substrate cleavage was measured in a Spectramax M5 microplate reader (Molecular Devices).

SJSA-1 cells [4] = type: cell-based; conditions: 24 h; remark: listed apart in the source
Method: The cells were then exposed to a caspase-3 specific substrate (Ac-DEVD-AMC ('DEVD' disclosed as SEQ ID NO: 7)). Fluorescence as a result of cleavage was measured in a microplate reader. To determine the specificity of the activity, certain peptides were incubated alongside DEVD-CHO ('DEVD' disclosed as SEQ ID NO: 7), a substrate known to inhibit caspase-3 specifically. The effect of various peptides on caspase-3 activation was examined as follows. […] The cells were then exposed to a caspase-3 specific substrate. Fluorescence as a result of cleavage was measured in a microplate reader. To determine the specificity of the activity, certain peptides were incubated alongside DEVD-CHO ('DEVD' disclosed as SEQ ID NO: 7), a substrate known to inhibit caspase-3 specifically. […] Cell viability was assayed by addition of CellTiter-GloTM bioluminescence reagent (Promega) and reading luminescence in a Spectramax M5 microplate reader (Molecular Devices). The extent of apoptosis was measured through the detection of caspase-3 activity by exposing the cells to a caspase-3-specific substrate (Oncogene). Fluorescence as a result of substrate cleavage was measured in a Spectramax M5 microplate reader (Molecular Devices).

Native HDM2 = biological target: T3, Native HDM2 (Homo sapiens, UniProt Q00987); experiment: Co-immunoprecipitation of FITC-SAH-p53 peptides and endogenous HDM2; type: cell-based; conditions: SJSA-1 cells
T3 construct: Co-Immunoprecipitation of FITC-SAH-p53 Peptides and Endogenous HDM2; endogenous in cells; host or cells: SJSA-1 osteosarcoma cells
T3 sequence (Q00987 whole entry): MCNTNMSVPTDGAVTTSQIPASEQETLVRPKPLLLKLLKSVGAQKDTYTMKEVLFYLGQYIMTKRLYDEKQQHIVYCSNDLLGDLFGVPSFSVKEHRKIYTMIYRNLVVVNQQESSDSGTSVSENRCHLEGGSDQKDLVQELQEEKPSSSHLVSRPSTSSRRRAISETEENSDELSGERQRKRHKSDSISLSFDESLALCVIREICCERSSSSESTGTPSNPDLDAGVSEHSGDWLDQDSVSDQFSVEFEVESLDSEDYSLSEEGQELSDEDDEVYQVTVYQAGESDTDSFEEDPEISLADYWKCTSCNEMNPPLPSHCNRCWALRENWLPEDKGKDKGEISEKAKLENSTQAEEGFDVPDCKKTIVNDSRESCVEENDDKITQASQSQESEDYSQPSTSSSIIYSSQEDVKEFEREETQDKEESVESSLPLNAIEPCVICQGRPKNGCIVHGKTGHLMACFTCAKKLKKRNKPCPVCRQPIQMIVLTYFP
Method: FIG. 8 SJSA-1 cells were incubated with FITC-peptides followed by lysis and anti-FITC pull down.
SJSA-1 osteosarcoma cells (1×10^6) were treated with FITC-p53 peptides (15 μM) in serum-free media for 4 hours, followed by serum replacement and additional 8 hour incubation. The cells were thoroughly washed with serum-containing media and PBS and exposed to lysis buffer (50 mM Tris pH 7.6, 150 mM NaCl, 1% Triton-X100, 1 mM PMSF, 1 U mL^−1 benzonase nuclease [EMD Biosciences] and complete protease inhibitor tablet [Roche]) at room temperature. All subsequent steps were all performed at 4° C. The extracts were centrifuged, and the supernatants were incubated with protein A/G sepharose (50 μL 50% bead slurry per 0.5 mL lysatcs; Santa Cruz Biotechnology). The pre-cleared supernatants (500 μL) were collected after centrifugation, incubated with 10 μL of goat-anti-FITC antibody (AbCam) for 1.5 h followed by protein A/G sepharose for an additional 1.5 hours. The immunoprecipitation reactions were pelleted and washed three times with lysis buffer. The precipitated proteins were suspended in SDS-containing loading buffer, boiled, and the supernatants were processed by SDS-PAGE on 4-12% Bis-Tris gels (Invitrogen). The proteins were blotted into Immobilon-P membranes (Millipore). […]

T2 sequence (Q00987 whole entry, looked up): as the sequence (Q00987 whole entry) above
T1 sequence (Q00987 17-125 limits assumed): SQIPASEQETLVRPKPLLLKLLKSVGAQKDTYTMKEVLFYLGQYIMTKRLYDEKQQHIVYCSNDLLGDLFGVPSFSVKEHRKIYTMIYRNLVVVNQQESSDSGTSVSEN

Row | Kd (HDM2) | cellular fluorescence (SJSA-1 cells [2]) | Compound | helicity (circular dichroism) | further results
1 | 0.92 ± 0.11 nM |  | CC(=O)NCCC(=O)N[C@@H](CC(C)C)C(=O)N[C@@H](CO)C(=O)N[C@@H](CCC(N)=O)C(=O)N[C@@H](CCC(=O)O)C(=O)N[C@H](C(=O)N[C@@H](Cc1ccccc1)C(=O)N[C@]1(C)CCCCCCC=CCCC[C@@](C)(C(=O)N[C@@H](CCC(=O)O)C(=O)N[C@@H](CC(N)=O)C(N)=O)NC(=O)[C@H](CC(C)C)NC(=O)[C@H](CC(C)C)NC(=O)[C@H](CCCCN)NC(=O)[C@H](Cc2c[nH]c3ccccc23)NC(=O)[C@H](CC(C)C)NC(=O)[C@H](CC(=O)O)NC1=O)[C@@H](C)O [SAH-p53-4] | 59% | HDM2 binding affinity (HDM217-125): subnanomolar; proteolytic stability [1]: improved proteolytic stability; serum half-life (t1/2) compared with unmodified wild type peptide ([1]; exposed to serum ex vivo): almost four times longer
2 | 56 ± 11 nM |  | CC(=O)NCCC(=O)N[C@@H](CC(C)C)C(=O)N[C@@H](CO)C(=O)N[C@@H](CCC(N)=O)C(=O)N[C@@H](CCC(N)=O)C(=O)N[C@H](C(=O)N[C@@H](Cc1ccccc1)C(=O)N[C@]1(C)CCCCCCC=CCCC[C@@](C)(C(=O)N[C@@H](CCC(N)=O)C(=O)N[C@@H](CC(N)=O)C(N)=O)NC(=O)[C@H](CC(C)C)NC(=O)[C@H](CC(C)C)NC(=O)[C@H](CCCNC(=N)N)NC(=O)[C@H](Cc2c[nH]c3ccccc23)NC(=O)[C@H](CC(C)C)NC(=O)[C@H](CC(N)=O)NC1=O)[C@@H](C)O [SAH-p53-6] (Ac-[βAla]LSQQTF[R8]NLWRLL[S5]QN-NH2; staple 8-15) | 14% | apoptosis induction (annexin V, FACS) (RKO cells): caused significant apoptosis
3 | 50 ± 10 nM |  | CC(=O)NCCC(=O)N[C@@H](CCC(N)=O)C(=O)N[C@@H](CO)C(=O)N[C@@H](CCC(N)=O)C(=O)N[C@@H](CCC(N)=O)C(=O)N[C@H](C(=O)N[C@@H](Cc1ccccc1)C(=O)N[C@]1(C)CCCCCCC=CCCC[C@@](C)(C(=O)N[C@@H](CCC(N)=O)C(=O)N[C@@H](CC(N)=O)C(N)=O)NC(=O)[C@H](CC(C)C)NC(=O)[C@H](CC(C)C)NC(=O)[C@H](CCCCN)NC(=O)[C@H](Cc2c[nH]c3ccccc23)NC(=O)[C@H](CC(C)C)NC(=O)[C@H](CC(N)=O)NC1=O)[C@@H](C)O [SAH-p53-7] (Ac-[βAla]QSQQTF[R8]NLWKLL[S5]QN-NH2; staple 8-15) | 36% | 
4 | > 4000 nM | Cellular fluorescence was observed | CC(=O)NCCC(=O)N[C@@H](CCC(N)=O)C(=O)N[C@@H](CO)C(=O)N[C@@H](CCC(N)=O)C(=O)N[C@@H](CCC(N)=O)C(=O)N[C@H](C(=O)N[C@@H](C)C(=O)N[C@]1(C)CCCCCCC=CCCC[C@@](C)(C(=O)N[C@@H](CCC(N)=O)C(=O)N[C@@H](CC(N)=O)C(N)=O)NC(=O)[C@H](CC(C)C)NC(=O)[C@H](CC(C)C)NC(=O)[C@H](CCCNC(=N)N)NC(=O)[C@H](Cc2c[nH]c3ccccc23)NC(=O)[C@H](CC(C)C)NC(=O)[C@H](CC(N)=O)NC1=O)[C@@H](C)O [SAH-p53-8F19A] (Ac-[βAla]QSQQTA[R8]NLWRLL[S5]QN-NH2; staple 8-15; N-terminus and C-terminus assumed) | 39% | 
5 | 55 ± 11 nM | Cellular fluorescence was observed | CC(=O)NCCC(=O)N[C@@H](CCC(N)=O)C(=O)N[C@@H](CO)C(=O)N[C@@H](CCC(N)=O)C(=O)N[C@@H](CCC(N)=O)C(=O)N[C@H](C(=O)N[C@@H](Cc1ccccc1)C(=O)N[C@]1(C)CCCCCCC=CCCC[C@@](C)(C(=O)N[C@@H](CCC(N)=O)C(=O)N[C@@H](CC(N)=O)C(N)=O)NC(=O)[C@H](CC(C)C)NC(=O)[C@H](CC(C)C)NC(=O)[C@H](CCCNC(=N)N)NC(=O)[C@H](Cc2c[nH]c3ccccc23)NC(=O)[C@H](CC(C)C)NC(=O)[C@H](CC(N)=O)NC1=O)[C@@H](C)O [SAH-p53-8] | 85% | EC50 (SJSA-1 cells [3]): 8800 nM; EC50 (SJSA-1 cells [4]): 5800 nM
6 |  |  | FITC-SAH-p53-8: N-terminally fluoresceinated SAH-p53-8 |  | co-immunoprecipitation of native HDM2 (anti-FITC pull down) (Native HDM2): co-immunoprecipitated
